From patent US7910593B2, “Water-soluble prodrugs” (Chugai Seiyaku Kabushiki Kaisha, priority 2004, dated 2011)

Key:
[1] = Test Example 1: conversion of compound 2A into activated form in human serum; assay type: in vitro ADME; settings: for compound 2A (measured values, %): human serum, 50 μM, 37° C.
Experimental: (§1) The percentages of compound 2A produced in Example 2 being converted into an activated form in sera of humans, mice, monkeys, and dogs were determined. The activated form is in a rapid equilibrium between the lactone form and the carboxylate form, which were quantified separately.
(§2) Compound 2A was incubated at 37° C. at a concentration of 50 μM in sera of humans, mice, monkeys, and dogs. Incubation was terminated at a given time (0, 30, 60, 120, and 360 minutes), and the samples were analyzed by HPLC after deproteinization treatments.
(§3) Conditions for the HPLC analysis are as follows: • HPLC conditions • Column: Develosil C30-UG-3, 3 μm, 50×4.6 mm I.D • Column Temperature: constant temperature at approximately 25° C. • Mobile phase: A: 10 mM phosphate buffer (pH4.7) • B: acetonitrile • /B (min): 90/10(0)→90/10(0.4)→40/60(6)→2/98(8)→90/10(9)→90/10(15)
(§4) Flow rate: 1.0 mL/min • Detection: photodiode array detector, detection wavelength 350 nm • Amount injected: 30 μL
(§5) Generally, camptothecins in solution are in a rapid equilibrium between a structure in which the carbonyl at position 3 forms a 6-membered cyclic ester with the oxygen at position 2, and its open-ring structure. The lactone form refers to the former condition and the carboxylate form refers to the latter condition.

[2] = Test Example 5: conversion of compound 2A into activated form in human sera; assay type: in vitro ADME; settings: for compound 2A (measured values, %): Test Example 5, human sera, 50 μM, 37° C.
Experimental: (§6) The percentages of compound 2A produced in Example 2 being converted into an activated form in sera of humans, rats, mice, monkeys, and dogs were determined. The activated form is in a rapid equilibrium between the lactone form and the carboxylate form, which were quantified separately.
(§7) Compound 2A was incubated at 37° C. at a concentration of 50 μM in sera of humans, mice, rats, monkeys, and dogs. Incubation was terminated at a given time (0, 30, 60, 120, and 360 minutes), and the samples were analyzed by HPLC after deproteinization treatments.
(§8) Conditions for the HPLC analysis are as follows: • HPLC conditions • Column: Develosil C30-UG-3, 3 μm, 35×4.6 mm I.D • Column Temperature: constant temperature at approximately 25° C. • Mobile phase: A: 10 mM phosphate buffer (pH4.7) • B: acetonitrile • /B (min): 90/10(0)→90/10(0.4)→40/60(6)→2/98(8)→90/10(9)→90/10(15) • Flow rate: 1.0 mL/min • Detection: photodiode array detector, detection wavelength 350 nm • Amount injected: 30 μL
as §5

[3] = Test Example 1: conversion of compound 2A into activated form in monkey serum; assay type: in vitro ADME; settings: for compound 2A (measured values, %): monkey serum, 50 μM, 37° C.
Experimental: as §1, §2, §3, §4, §5

[4] = Test Example 1: conversion of compound 2A into activated form in dog serum; assay type: in vitro ADME; settings: for compound 2A (measured values, %): dog serum, 50 μM, 37° C.
Experimental: as §1, §2, §3, §4, §5

[5] = Test Example 5: conversion of compound 2A into activated form in monkey sera; assay type: in vitro ADME; settings: for compound 2A (measured values, %): Test Example 5, monkey sera, 50 μM, 37° C.
Experimental: as §6, §7, §8, §5

[6] = tested on: human colon cancer cell line HCT116; assay: Test Example 4: antitumor effect in HCT116 tumor-bearing nude mice; assay type: in vivo, BALB/c nude mice; settings: once per week for three weeks
Experimental: Antitumor effects were determined for representative examples of the group of compounds of the present invention. Tumor-bearing mice were generated by subcutaneous transplantation of human colon cancer cell line HCT116 obtained from American Type Culture Collection (Virginia, USA) into the right flank of BALB/c nude mice purchased from Charles River Japan, and used for determination of antitumor effects.
After a one-week quarantine period, the purchased nude mice were subjected to subcutaneous transplantation of 5×10^6 HCT116 cells at their right flank. Mice with a tumor size reaching 200 mm^3 or so were subjected to the experiment.
The compounds were dissolved in 1 mM citric bufferes saline, pH 4, and administered intravenously. The administration was carried out once per week for three weeks, for a total of three administrations. The antitumor effect was determined as tumor growth inhibition (TGI) using the following equation. Tumor growth inhibition (TGI) (%)={(1−mean tumor volume change in the drug-treated group/mean tumor volume change in the control group)×100} The results are shown in Table 6.

## CCCCCN1C=Nc2cccc3nc4c(c1c23)Cn1c-4cc2c(c1=O)COC(=O)[C@@]2(CC)OC(=O)CN(C)C(=O)CN.Cl [Compound 2A, (9S)-9-Ethyl-9-(glycyl-sarcosyloxy)-1-pentyl-1H,12H-pyrano[3″,4″:6′,7′]indolizino[1′,2′:6,5]pyrido[4,3,2-de]quinazoline-10,13(9H,15H)-dione hydrochloride]
[1]; human sera, Test Example 1
  conversion to the lactone form (in words): quickly converted to the lactone form
[1]; incubation 0 minutes
  compound 2A (measured values, %): 0%
[1]; incubation 30 minutes
  compound 2A (measured values, %): 0%
[1]; incubation 60 minutes
  compound 2A (measured values, %): 0%
[1]; incubation 120 minutes
  compound 2A (measured values, %): 0%
[1]; incubation 360 minutes
  compound 2A (measured values, %): 0%
[2]; incubation 0 minutes
  compound 2A (measured values, %): 0%
[2]; incubation 30 minutes
  compound 2A (measured values, %): 0%
[2]; incubation 60 minutes
  compound 2A (measured values, %): 0%
[2]; incubation 120 minutes
  compound 2A (measured values, %): 0%
[2]; incubation 360 minutes
  compound 2A (measured values, %): 0%
[2]; human sera, Test Example 5
  conversion to the lactone form (in words): quickly converted to the lactone form
[3]; monkey sera, Test Example 1
  conversion to the lactone form (in words): quickly converted to the lactone form
[3]; incubation 0 minutes
  compound 2A (measured values, %): 0%
[3]; incubation 30 minutes
  compound 2A (measured values, %): 0%
[3]; incubation 60 minutes
  compound 2A (measured values, %): 0%
[3]; incubation 120 minutes
  compound 2A (measured values, %): 0%
[3]; incubation 360 minutes
  compound 2A (measured values, %): 0%
[4]; dog sera, Test Example 1
  conversion to the lactone form (in words): quickly converted to the lactone form
[4]; incubation 0 minutes
  compound 2A (measured values, %): 0%
[4]; incubation 30 minutes
  compound 2A (measured values, %): 0%
[4]; incubation 60 minutes
  compound 2A (measured values, %): 0%
[4]; incubation 120 minutes
  compound 2A (measured values, %): 0%
[4]; incubation 360 minutes
  compound 2A (measured values, %): 0%
[5]; incubation 0 minutes
  compound 2A (measured values, %): 0%
[5]; incubation 30 minutes
  compound 2A (measured values, %): 0%
[5]; incubation 60 minutes
  compound 2A (measured values, %): 0%
[5]; incubation 120 minutes
  compound 2A (measured values, %): 0%
[5]; incubation 360 minutes
  compound 2A (measured values, %): 0%
[5]; monkey sera, Test Example 5
  conversion to the lactone form (in words): quickly converted to the lactone form
[6]; 0.9 mg/kg intravenously
  TGI (%) on Day 21: 45%
[6]; 1.9 mg/kg intravenously
  TGI (%) on Day 21: 52%
[6]; 3.75 mg/kg intravenously
  TGI (%) on Day 21: 72%
[6]; 7.5 mg/kg intravenously
  TGI (%) on Day 21: 74%
[6]; 15 mg/kg intravenously
  TGI (%) on Day 21: 85%
[6]; 30 mg/kg intravenously
  TGI (%) on Day 21: 97%
[6]; 60 mg/kg intravenously
  TGI (%) on Day 21: 110%
